According to patent publication US20250170239A1, “CELLULAR REPROGRAMMING BY TARGETING THE GOLGI APPARATUS” (MUSC Foundation for Research Development, priority 2023, published 2025):

How the values were obtained:
Format in all cases: cell-based, mouse
[1] = tested on: Prdx4 knockdown T cells; test: Prdx4 siRNA knockdown Pmel T cells under Golgi/oxidative stress
Method: (FIG. 22A) Pmel T cells were activated for 3 days before treatment with vehicle or 50 mM H2O2 for 6 hrs. Prdx4-Golgi colocalization was assessed by PLA using mouse anti-Giantin and rabbit anti-Prdx4 antibodies. (FIG. 22B) Activated Pmel T cells treated with vehicle or 50 mM H2O2 for 6 hrs or 24 hrs with Monensin (1 mM). PLA assay was performed using anti-Giantin and anti-Prdx4 antibodies. (FIG. 22C) Experimental design using Prdx4-targeted siRNA to silence expression of Prdx4 in Pmel T cells. (FIG. 22D) GM130 expression assessed under control versus Monensin (1 μM) conditions in T cells treated with control-siRNA or Prdx4-siRNA. (FIG. 22E) GM130 expression assessed under control versus 50 mM H2O2 conditions in T cells treated with control-siRNA or Prdx4-siRNA+/−0.5 mM GYY4137. (FIG. 22F) Protein translation assessed in Pmel T cells activated+/−GYY4137 and treated with control-siRNA or Prdx4-siRNA. (FIG. 22G) GM130 expression in Pmel T cells treated with vehicle, GYY4137, or Catalase (10 μg/mL). (FIGS. 22H and 22I) Site directed mutagenesis performed to mutate cysteine-54 of the Prdx4 gene. Prdx4-targeted shRNA was used to knock down expression of Prdx4 in Jurkat T cells, followed by transfection with plasmid containing wildtype or mutated Prdx4. (FIG. 22I) GM130 expression assessed after treatment with 50 mM H2O2+/−GYY4137. (FIG. 22J) B16-F10 tumors were injected s.c. into flanks of Pmel mice and grown to ˜100 mm2. TILs and T cells from tumor-draining lymph nodes were isolated via Ficoll spin followed by magnetic bead positive selection. FACS analysis of Prdx4 expression in TILs gated on PD1loLag3lo vs PD1hiLag3hi. (FIG. 22K) Lentiviral supernatant was generated using GFP-tagged control plasmid or GFP-tagged Prdx4-overexpression plasmid. Pmel T cells were transduced with control or Prdx4 lentivirus. Pmel T cells overexpressing Prdx4 and control T cells were treated with H2O2 (50 mM) followed by staining with anti-GM130.
Given the delicate redox balance necessary for the native disulfide bonds, it was postulated that a localized mechanism for the detection and elimination of ROS produced during the oxidative folding process may require Prdx4. Thus, it was hypothesized that ER and Golgi network stress mitigated by H2S is mediated through the Prdx4 localization and activity in these organelles. First, it was established if Prdx4 also localizes within the Golgi apparatus in T cells using a proximity ligation assay (PLA), a tool that allows in situ detection of endogenous proteins with high specificity and sensitivity, with antibodies directed against Giantin (a conserved Golgi membrane protein) and Prdx4. […] Next, using siRNA targeting Prdx4, expression of Prdx4 in CD8+ Pmel T cells was knocked down (FIG. 22C, FIGS. 23A and 23B). The cells were then subjected to conditions of oxidative and Golgi stress in the presence or absence of H2S treatment. […] Then, to determine whether the protective effect of H2S on Golgi stress is dependent on the presence of Prdx4, Golgi stress was induced in the presence or absence of H2S with control (siCtl) and Prdx4 knockdown (siPrdx4) T cells.

[2] = tested on: CD8+ Pmel T cells; test: RT-PCR of CBS and CSE in cytokine-treated CD8+ Pmel T cells; settings: CD8+ Pmel T cells activated 3 days in presence of cytokine
Source text: (FIG. 13A) Pmel T cells were stained with trypan blue stain on day 3 following activation with gp100+IL2 (100 IU/ml) and treated with concentrations of GYY4137 (n=5). (FIG. 13B) Gating strategy for FACS analysis. Pmel splenocytes stained with LIVE/DEAD Fixable Yellow dye and anti-CD8 PE-Cy7. All FACS samples were first gated on the lymphocyte population based on FSA vs SSA. Single cells were gated using FSA vs. FSH. Live cells were gated using live/dead exclusion dye. CD8+ cells were gated by selecting the positive population. (FIG. 13C) Pmel T cells were stimulated with gp100 tumor antigen and treated with either vehicle or GYY4137 (0.5 mM) and analyzed by FACS for expression of CD62L and CD44 at day 0, day 2, day 4, and day 6. […] (FIG. 13F) CD8+ Pmel T cells were activated for 3 days in the presence of various cytokines and analyzed for mRNA expression of CBS and CSE. […] Splenocytes were activated with anti-CD3 and anti-CD28 antibodies an analyzed for expression of Cbs by western blot. (FIG. 13H) Splenocytes from WT and Cbs-KO mice were expanded with either IL-2 or expanded with IL-15 (10 ng/ml) with or without addition of H2S to the Cbs-KO cells and analyzed for expression of CD62L and CD44 by FACS (n=3). […] At day 14, the mice were bled and the frequency of CD3+ T cells was assessed by FACS (n=5). […] (FIG. 13K) Cells were analyzed using FACS for expression of PD1, TIM3, Lag3, and CD38 (n=3). […]

[3] = tested on: Pmel T cells; test: Golgi stress (monensin, H2O2, thapsigargin) in Pmel T cells: GM130, ROS, Golgi dispersion; design: cell death / mitochondrial ROS / monensin-induced cell death and mitochondrial ROS accumulation / ER stress (p-PERK): dose or concentration left out as unconfirmed
Method: (FIG. 21A) Levels of intracellular glutathione assessed using FACS by employing ThiolTracker Violet dye in control CD19 CAR-T cells or CAR-T cells overexpressing Cbs (CbstdCD19-CAR-T) (n=3). (FIG. 21B) 12 hour Thapsigargin (700 nM) treatment was used to induce ER stress in WT T cells, Cbs-KO T cells, and Cbs-KO T cells+H2S. Levels of phosphorylated PERK were assessed by FACS (n=3). (FIG. 21C) Pmel T cells were treated with either Thapsigargin (700 nM) or Monensin (1 mM) for 12 hours, followed by staining for phosphorylated PERK (p-PERK) and GM130 to assess ER stress and Golgi stress, respectively (n=4). (FIG. 21D) Activated Pmel T cells were treated for 12 hours with either vehicle control or 1 mM Monensin (“+Golgi stress”) before being stained for giantin to assess Golgi dispersion. […] (FIG. 21E) Representative confocal microscopy images of mitochondria (Tom20) and Golgi (giantin) in human PBMCs treated with vehicle control or 0.5 mM GYY4137.
T cells were stained with conjugated for surface markers as described in the figure legends followed by fixation and permeabilization with BD Cytofix/Cytoperm Kit (BD Biosciences, 554722). The Golgi was labeled using anti-Giantin antibody (Abcam, ab80864) as the primary antibody followed by secondary antibody staining with anti-Rabbit IgG conjugated to Alexa Fluor 488 (ab150077). The cells were then imaged using ImageStreamX mark II imaging flow-cytometer and analyzed using IDEAS 6.2. Spectral overlap was compensated for using single-stain controls. Image analysis for Golgi area was performed using the protocol established by Eisenberg-Lerner et al.44 First, cells were gated on single cells using the area and aspect ratio features, and then gated on focused cells using the Gradient RMS feature. Golgi area was calculated using the anti-Giantin fluorescence signaling, using on the Threshold_50 mask that includes the 50% highest intensity pixels of the Golgi staining, with a mask defined as Area Threshold 50 was considered as the Golgi area to compare between the relevant conditions.

catalase
protection against Golgi stress (GM130), Prdx4 knockdown T cells ([1]; Catalase (10 μg/mL)): protection against Golgi stress could be rescued

IL15: cytokine known to induce the Tcm phenotype in T cells
mRNA expression of CBS and CSE [2]: significantly increased expression of both CBS and CSE

CC[C@@]1([C@@H]2O[C@@H]([C@H]3O[C@@](O)(CO)[C@H](C)C[C@@H]3C)C[C@@H]2C)CC[C@H]([C@]2(C)CC[C@]3(C[C@H](O)[C@@H](C)[C@@H]([C@@H](C)[C@@H](OC)[C@H](C)C(=O)O)O3)O2)O1 [monensin]
decrease in GM130 expression, Prdx4 knockdown T cells ([1]; Monensin (1 μM)): further exacerbated | ER stress (p-PERK) [3]: did not induce ER stress | cell death [3]: induced cell death | mitochondrial ROS [3]: cellular accumulation of mitochondrial ROS | Golgi dispersion (Golgi area, ImageStream) ([3]; 1 mM Monensin 12 hours): Golgi dispersion significantly increased | intracellular ROS (DCFDA) ([3]; 1 mM monensin): significant increase in ROS (DCFDA)

IL6: cytokine that plays a key role in memory formation
mRNA expression of CBS and CSE [2]: significantly increased expression of both CBS and CSE

C/C=C(/C)C(=O)O[C@H]1C(C)=C2[C@H]([C@@H]1OC(=O)CCCCCCC)[C@@](C)(OC(C)=O)C[C@H](OC(=O)CCC)[C@@]1(O)[C@H]2OC(=O)[C@@]1(C)O [Thapsigargin]
Golgi stress (GM130) ([3]; Thapsigargin (700 nM) 12 hours): nor did Thapsigargin induced Golgi stress
